Assays:
Heat shock protein HSP90 = Heat shock protein HSP90 (Homo sapiens, UniProt P07900+P08238)
Liver microsomes [1] = assay: Hepatic clearance in human liver microsomes […]; type: ADME, Microsome
[2] = Half life in rat; type: ADME, organism-based; details: in vivo
Liver microsomes [3] = assay: Hepatic clearance in rat liver microsomes […]; type: ADME, Microsome
[4] = AUC (0 to infinity) in rat at 10 mg/kg, po; type: ADME, organism-based; design: time infinity, dose 10 mg/kg, route oral; details: plasma
[5] = Oral bioavailability in rat; type: ADME, organism-based; details: in vivo
[6] = AUC (0 to infinity) in rat at 2.5 mg/kg, iv; type: ADME, organism-based; design: time infinity, dose 2.5 mg/kg, route intravenous; details: plasma
[7] = Clearance in rat; type: ADME, organism-based; details: in vivo
[8] = Volume of distribution in rat; type: ADME, organism-based; details: in vivo
[9] = Half life in mouse at 20 mg/kg, iv; type: ADME, organism-based; design: dose 20 mg/kg, route intravenous; details: in vivo
[10] = Half life in mouse at 100 mg/kg, po; type: ADME, organism-based; design: dose 100 mg/kg, route oral; details: in vivo
Mus musculus [11] = assay: Free plasma concentration in mouse at 100 mg/kg, ip after 4 hrs; type: ADME, organism-based; design: dose 100 mg/kg, route intraperitoneal; details: in vivo
Mus musculus [12] = assay: Free plasma concentration in mouse at 100 mg/kg, po after 1 hr; type: ADME, organism-based; design: dose 100 mg/kg, route oral; details: in vivo
Mus musculus [13] = assay: Free plasma concentration in mouse at 20 mg/kg, iv after 1 hr; type: ADME, organism-based; design: dose 20 mg/kg, route intravenous; details: in vivo
Mus musculus [14] = assay: Free plasma concentration in mouse at 100 mg/kg, ip after 1 hr; type: ADME, organism-based; design: dose 100 mg/kg, route intraperitoneal; details: in vivo
Mus musculus [15] = assay: Free plasma concentration in mouse at 20 mg/kg, iv after 4 hrs; type: ADME, organism-based; design: dose 20 mg/kg, route intravenous; details: in vivo
Mus musculus [16] = assay: Free plasma concentration in mouse at 100 mg/kg, po after 4 hrs; type: ADME, organism-based; design: dose 100 mg/kg, route oral; details: in vivo

O=C(C1c2ccccc2CN1C(=O)c1cc(Cl)c(O)cc1O)N1CCCC1 (stereo unspecified)
IC50 (Heat shock protein HSP90): 600 nM
CLH (Liver microsomes [1]): 2 µL/min

CCCNC(=O)C1c2ccccc2CN1C(=O)c1cc(Cl)c(O)cc1O (stereo unspecified)
CLH (Liver microsomes [1]): 9 µL/min

CN(C)C(=O)[C@H]1CCCN1C(=O)c1cc(Cl)c(O)cc1O
CLH (Liver microsomes [1]): < 7 µL/min

O=C([C@H]1c2ccccc2CN1C(=O)c1cc(Cl)c(O)cc1O)N1CCCC1
half-life [2]: 7.9 h
IC50 (Heat shock protein HSP90): 600 nM
CLH (Liver microsomes [3]): 0.2 µL/min
AUC(0-inf) [4]: 2900 ng·h/mL
bioavailability [5]: 35%
AUC(0-inf) [6]: 2100 ng·h/mL
clearance [7]: 23.3 mL/min/kg
CLH (Liver microsomes [1]): 11 µL/min
Vd [8]: 8.1 L/kg

O=C(NCc1ccccc1)C1c2ccccc2CN1C(=O)c1cc(Cl)c(O)cc1O (stereo unspecified)
IC50 (Heat shock protein HSP90): 700 nM
CLH (Liver microsomes [1]): 25 µL/min

CO[C@H]1/C=C\C=C(/C)C(=O)NC2=CC(=O)C(NCCN(C)C)=C(C[C@@H](C)C[C@H](OC)[C@H](O)[C@@H](C)/C=C(\C)[C@@H]1OC(N)=O)C2=O [ALVESPIMYCIN]
CLH (Liver microsomes [1]): < 3 µL/min

CN(C)C(=O)C1c2ccccc2CN1C(=O)c1cc(Cl)c(O)cc1O (stereo unspecified)
IC50 (Heat shock protein HSP90): 1500 nM
CLH (Liver microsomes [1]): 2.4 µL/min

O=C([C@H]1CCCN1C(=O)c1cc(Cl)c(O)cc1O)N1CCCC1
CLH (Liver microsomes [1]): < 9 µL/min

O=C(c1cc(Cl)c(O)cc1O)N1CCCC1
CLH (Liver microsomes [1]): 56 µL/min

CNC(=O)C1c2ccccc2CN1C(=O)c1cc(Cl)c(O)cc1O (stereo unspecified)
IC50 (Heat shock protein HSP90): 1700 nM
CLH (Liver microsomes [1]): < 2 µL/min

C=CCNC(=O)C1c2ccccc2CN1C(=O)c1cc(Cl)c(O)cc1O (stereo unspecified)
IC50 (Heat shock protein HSP90): 1500 nM
CLH (Liver microsomes [1]): 8.5 µL/min

CCNC(=O)C1c2ccccc2CN1C(=O)c1cc(Cl)c(O)cc1O (stereo unspecified)
IC50 (Heat shock protein HSP90): 300 nM
CLH (Liver microsomes [1]): 4.7 µL/min

Cc1ccccc1[C@H]1CCCN1C(=O)c1cc(Cl)c(O)cc1O
IC50 (Heat shock protein HSP90): 1000 nM
CLH (Liver microsomes [1]): 129 µL/min

CCNC(=O)[C@H]1c2ccccc2CN1C(=O)c1cc(Cl)c(O)cc1O
half-life [9]: 5.2 h
half-life [2]: 5.2 h
half-life [10]: 8.3 h
IC50 (Heat shock protein HSP90): 300 nM
Cp(f) (Mus musculus [11]): 410 nM
Cp(f) (Mus musculus [12]): 810 nM
Cp(f) (Mus musculus [13]): 286 nM
Cp(f) (Mus musculus [14]): 16000 nM
CLH (Liver microsomes [3]): 0.2 µL/min
AUC(0-inf) [4]: 1300 ng·h/mL
bioavailability [5]: 20%
AUC(0-inf) [6]: 1700 ng·h/mL
Cp(f) (Mus musculus [15]): 76 nM
clearance [7]: 23.3 mL/min/kg
Cp(f) (Mus musculus [16]): 330 nM
CLH (Liver microsomes [1]): 7 µL/min
Vd [8]: 3.3 L/kg

O=C(NC1CCCCC1)[C@H]1CCCN1C(=O)c1cc(Cl)c(O)cc1O
CLH (Liver microsomes [1]): 9 µL/min

Reference: ChEMBL document CHEMBL1156757, “Dihydroxyphenylisoindoline amides as orally bioavailable inhibitors of the heat shock protein 90 (hsp90) molecular chaperone” (J Med Chem, 2010)
